How the values were obtained:
naïve rats = experiment: Passive one-way inhibitory avoidance learning, naïve rats; format: in vivo, Sprague-Dawley rats; conditions: 5 mg/kg/d i.p., 1 day and 7 days after footshock
Protocol: SAHA was supplied by NatureWise Biotech and Medicals Corporation (Taipei, Taiwan). […] (St. Louis, MO, USA). The BMX and SAHA stock (100 mg/mL) was dissolved in DMSO and diluted with saline to a final concentration of 0.5 mg/mL (in 0.5% DMSO/saline). […] SD rats were randomly divided into 3 groups. For the naïve animal experiments, the BMX-injected or SAHA-injected groups were injected with BMX (5 mg/kg/d) or SAHA (5 mg/kg/d) intraperitoneally 7 d prior to behavioral experiments and during the experimentation. The control group received the 0.5% DMSO/saline injection. The injection volume was 10 μL/g of body weight. The injections were performed once per day. For the amnesia experiment, the protocol was adopted from previous studies with modifications. […] The control group received the 0.5% DMSO/saline injection. The injection volume was 10 μL/g of body weight. […] The apparatus consisted of a trough-shaped alley divided by a sliding door that separates an illuminated safety compartment and a dark compartment. A shock generator that produced current was connected to the floor of the dark compartment (UGO Basile, Comerio (VA), Italy). The method used was adopted from that of previous studies with modifications. The behavioral task, including the training and testing procedures, was recorded between 8:00 AM and 6:00 PM. […]

Sco-induced amnesia rats = experiment: Novel object recognition, Sco-induced memory impairment; format: in vivo, Sprague-Dawley rats; conditions: Sco 1.5 mg/kg/d; BMX or SAHA 5 mg/kg/d i.p.; 8 h
Protocol: SAHA was supplied by NatureWise Biotech and Medicals Corporation (Taipei, Taiwan). […] (St. Louis, MO, USA). The BMX and SAHA stock (100 mg/mL) was dissolved in DMSO and diluted with saline to a final concentration of 0.5 mg/mL (in 0.5% DMSO/saline). […] SD rats were randomly divided into 3 groups. For the naïve animal experiments, the BMX-injected or SAHA-injected groups were injected with BMX (5 mg/kg/d) or SAHA (5 mg/kg/d) intraperitoneally 7 d prior to behavioral experiments and during the experimentation. The control group received the 0.5% DMSO/saline injection. The injection volume was 10 μL/g of body weight. The injections were performed once per day. For the amnesia experiment, the protocol was adopted from previous studies with modifications. […] The control group received the 0.5% DMSO/saline injection. The injection volume was 10 μL/g of body weight. […] The method used was adopted from that of a previous study with modifications. During familiarization, rats were allowed to explore 2 identical objects in an open field box (90 × 70 × 60 cm) for 5 min. The criteria used for exploration were a distance less than 1.5 cm between the rat and the object or direct contact with the object. […] The time that each rat spent exploring the 2 objects during a 5 min period was recorded. […]

[1] = parameters: method as in PMID 20010553; conditions: cited from earlier work

In the case of `O=C(CCCCCCC(=O)Nc1ccccc1)NO` [SAHA, suberoylanilide hydroxamic acid, reference compound], the “retention time in the illuminated chamber” value (naïve rats) is given as “No difference in retention performance”, the “exploratory preference for the novel object (NO)” value (Sco-induced amnesia rats) is given as “showed no exploratory preference for the NO” and the “crossing of the blood-brain barrier” value [1] is given as “cross the blood-brain barrier (BBB)”.
